One block for each molecule: values may come before it.
Biological target: T1, GFRα1-RET (Homo sapiens, UniProt P56159)
T1 construct: expressed in transfected cells; host or cells: MG87 murine fibroblasts, stably transfected
T1 sequence (P56159 25-429 limits assumed): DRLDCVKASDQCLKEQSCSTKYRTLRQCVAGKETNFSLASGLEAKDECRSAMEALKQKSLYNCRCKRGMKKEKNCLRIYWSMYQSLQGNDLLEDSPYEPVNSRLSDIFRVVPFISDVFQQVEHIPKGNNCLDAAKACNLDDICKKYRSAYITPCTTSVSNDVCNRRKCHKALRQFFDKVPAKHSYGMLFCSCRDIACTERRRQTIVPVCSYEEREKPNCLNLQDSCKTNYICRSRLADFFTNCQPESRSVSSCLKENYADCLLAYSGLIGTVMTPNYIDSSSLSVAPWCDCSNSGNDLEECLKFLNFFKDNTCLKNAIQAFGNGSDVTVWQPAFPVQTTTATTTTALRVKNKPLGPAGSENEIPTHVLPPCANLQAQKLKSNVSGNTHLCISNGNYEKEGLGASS
Assay: Elk1 reporter-gene (luciferase) assay in cells expressing GFRα1-RET
Assay type: cell-based
Settings: MG87 murine fibroblasts stably transfected with PathDetect Elk-1, GFRα1 and RET, 6 concentrations, agonist/activator activity
Protocol: For ECso determination, a dose-response test was performed using 6 concentrations of each tested compound. Dose-response curves were fitted using the sigmoidal dose-response (variable slope) analysis in GraphPad Prism program (Graph Pad Inc) and ECso of agonist/activator activity was calculated. Dose-response experiments were all performed in duplicate, two times independently.

SMILES: O=C(c1ccc(F)cc1Cl)N1C[C@H]2CC[C@@H](C1)N2c1cc(S(=O)(=O)N2CCC(c3ccc(F)cc3)CC2)cc2c1OCC2 [compound 056, (2-chloro-4-fluoro-phenyl)-[(1S,5R)-8-[5-[[4-(4-fluorophenyl)-1-piperidyl]sulfonyl]-2,3-dihydrobenzofuran-7-yl]-3,8-diazabicyclo[3.2.1]octan-3-yl]methanone]
- EC50: < 1000 nM

SMILES: O=C(c1ccc(F)cc1Cl)N1C[C@H]2CC[C@@H](C1)N2c1cc(S(=O)(=O)N2CCC(c3ccccc3)CC2)ccc1C1CC1 [compound 080, (2-chloro-4-fluoro-phenyl)-[(1S,5R)-8-[2-cyclopropyl-5-[(4-phenyl-1-piperidyl)sulfonyl]phenyl]-3,8-diazabicyclo[3.2.1]octan-3-yl]methanone]
- EC50: < 1000 nM

SMILES: O=C(c1ccc(F)cc1Cl)N1C[C@H]2CC[C@@H](C1)N2c1cc(S(=O)(=O)N2CCC(CCc3ccccc3)CC2)ccc1OCCO [compound 077, (2-chloro-4-fluoro-phenyl)-[(1S,5R)-8-[2-(2-hydroxyethoxy)-5-[[4-(2-phenylethyl)-1-piperidyl]sulfonyl]phenyl]-3,8-diazabicyclo[3.2.1]octan-3-yl]methanone]
- EC50: < 1000 nM

SMILES: COc1ccc(S(=O)(=O)N2CCC(c3ccccc3)CC2)cc1N1[C@@H]2CC[C@H]1CN(C(=O)c1cc(F)c(F)cc1Cl)C2 [compound 049, (2-chloro-4,5-difluoro-phenyl)-[(1S,5R)-8-[2-methoxy-5-[(4-phenyl-1-piperidyl)sulfonyl]phenyl]-3,8-diazabicyclo[3.2.1]octan-3-yl]methanone]
- EC50: < 1000 nM

SMILES: CCCN(C)S(=O)(=O)c1ccc(OC(F)(F)F)c(N2[C@@H]3CC[C@H]2CN(C(=O)c2ccc(F)cc2Cl)C3)c1 [compound 027, 3-[(1S,5R)-3-(2-chloro-4-fluoro-benzoyl)-3,8-diazabicyclo[3.2.1]octan-8-yl]-N-methyl-N-propyl-4-(trifluoromethoxy)benzene sulfonamide]
- EC50: 1000 to 10000 nM

SMILES: CN(C)Cc1ccc(S(=O)(=O)N2CCC(c3ccccc3)CC2)cc1N1[C@@H]2CC[C@H]1CN(C(=O)c1ccc(F)cc1Cl)C2 [compound 073, (2-chloro-4-fluoro-phenyl)-[(1S,5R)-8-[2-[(dimethylamino)methyl]-5-[(4-phenyl-1-piperidyl)sulfonyl]phenyl]-3,8-diazabicyclo[3.2.1]octan-3-yl]methanone]
- EC50: 1000 to 10000 nM

SMILES: O=C(c1ccc(F)cc1Cl)N1C[C@H]2CC[C@@H](C1)N2c1cc(S(=O)(=O)N2CCC(c3ccc(F)cc3)CC2)cc(Cl)c1O [compound 099, (2-chloro-4-fluoro-phenyl)-[(1S,5R)-8-[3-chloro-5-[[4-(4-fluorophenyl)-1-piperidyl]sulfonyl]-2-hydroxy-phenyl]-3,8-diazabicyclo[3.2.1]octan-3-yl]methanone]
- EC50: < 1000 nM

SMILES: O=C(O)c1ccc(S(=O)(=O)N2CCC(c3ccccc3)CC2)cc1N1[C@@H]2CC[C@H]1CN(C(=O)c1ccc(F)cc1Cl)C2 [compound 071, 2-[(1S,5R)-3-(2-chloro-4-fluoro-benzoyl)-3,8-diazabicyclo[3.2.1]octan-8-yl]-4-[(4-phenyl-1-piperidyl)sulfonyl]benzoic acid]
- EC50: < 1000 nM

SMILES: O=C(c1ccc(F)cc1Cl)N1C[C@H]2CC[C@@H](C1)N2c1cc(S(=O)(=O)N2CCC(c3ccc(F)cc3)CC2)ccc1O [compound 065, (2-chloro-4-fluoro-phenyl)-[(1S,5R)-8-[5-[[4-(4-fluorophenyl)-1-piperidyl]sulfonyl]-2-hydroxy-phenyl]-3,8-diazabicyclo[3.2.1]octan-3-yl]methanone]
- EC50: < 1000 nM

SMILES: CC(C)(C)NS(=O)(=O)c1cc(Cl)c(OCCO)c(N2[C@@H]3CC[C@H]2CN(C(=O)c2ccc(F)cc2Cl)C3)c1 [compound 112]
- EC50: < 1000 nM

SMILES: Cc1cc(S(=O)(=O)N(C)CC2CC2)cc(N2[C@@H]3CC[C@H]2CN(C(=O)c2ccc(F)cc2Cl)C3)c1O [compound 092, 3-[(1S,5R)-3-(2-chloro-4-fluoro-benzoyl)-3,8-diazabicyclo[3.2.1]octan-8-yl]-N-(cyclopropylmethyl)-4-hydroxy-N,5-dimethyl-benzenesulfonamide]
- EC50: < 1000 nM

SMILES: O=C(c1ccc(F)cc1Cl)N1C[C@H]2CC[C@@H](C1)N2c1cc(S(=O)(=O)N2CCC(c3ccccc3)CC2)cc(F)c1O [compound 083, (2-chloro-4-fluoro-phenyl)-[(1S,5R)-8-[3-fluoro-2-hydroxy-5-[(4-phenyl-1-piperidyl)sulfonyl]phenyl]-3,8-diazabicyclo[3.2.1]octan-3-yl]methanone]
- EC50: < 1000 nM

SMILES: COc1ccc(S(=O)(=O)N2CCC(Oc3ccccc3)C2)cc1N1C2CCC1CN(C(=O)c1ccc(F)cc1Cl)C2 (racemic) [compound 126, (2-chloro-4-fluoro-phenyl)-[(1S,5R)-8-[2-methoxy-5-[(3SR)-3-phenoxypyrrolidin-1-yl]sulfonyl-phenyl]-3,8-diazabicyclo[3.2.1]octan-3-yl]methanone]
- EC50: < 1000 nM

SMILES: O=C(c1ccc(F)cc1Cl)N1C[C@H]2CC[C@@H](C1)N2c1cc(S(=O)(=O)N2CCN(CCc3ccc(Cl)cc3)CC2)ccc1O [compound 064, (2-chloro-4-fluoro-phenyl)-[(1S,5R)-8-[5-[4-[2-(4-chlorophenyl)ethyl]piperazin-1-yl]sulfonyl-2-hydroxy-phenyl]-3,8-diazabicyclo[3.2.1]octan-3-yl]methanone]
- EC50: < 1000 nM

SMILES: COCCOc1c(Cl)cc(S(=O)(=O)NC(C)(C)C)cc1N1[C@@H]2CC[C@H]1CN(C(=O)c1ccc(F)cc1Cl)C2 [compound 113]
- EC50: < 1000 nM

SMILES: Cc1cc(S(=O)(=O)N2CCC(c3ccc(F)cc3)CC2)cc(N2[C@@H]3CC[C@H]2CN(C(=O)c2ccc(F)cc2Cl)C3)c1O [compound 091, (2-chloro-4-fluoro-phenyl)-[(1S,5R)-8-[5-[[4-(4-fluorophenyl)-1-piperidyl]sulfonyl]-2-hydroxy-3-methyl-phenyl]-3,8-diazabicyclo[3.2.1]octan-3-yl]methanone]
- EC50: < 1000 nM

SMILES: CC(C)(O)c1ccc(S(=O)(=O)N2CCC(c3ccccc3)CC2)cc1N1[C@@H]2CC[C@H]1CN(C(=O)c1ccc(F)cc1Cl)C2 [compound 072, (2-chloro-4-fluoro-phenyl)-[(1S,5R)-8-[2-(1-hydroxy-1-methyl-ethyl)-5-[(4-phenyl-1-piperidyl)sulfonyl]phenyl]-3,8-diazabicyclo[3.2.1]octan-3-yl]methanone]
- EC50: 1000 to 10000 nM

SMILES: O=C(c1ccc(F)cc1Cl)N1C[C@H]2CC[C@@H](C1)N2c1cc(S(=O)(=O)N2CCC(c3ccc(F)cc3)CC2)cc(C(F)(F)F)c1O [compound 088, (2-chloro-4-fluoro-phenyl)-[(1S,5R)-8-[5-[[4-(4-fluorophenyl)-1-piperidyl]sulfonyl]-2-hydroxy-3-(trifluoromethyl)phenyl]-3,8-diazabicyclo[3.2.1]octan-3-yl]methanone]
- EC50: < 1000 nM

SMILES: O=C(c1ccc(F)cc1Cl)N1C[C@H]2CC[C@@H](C1)N2c1cc(S(=O)(=O)N2CCC(c3ccccc3)CC2)ccc1OCCO [compound 076]
- EC50: < 1000 nM

SMILES: COc1ccc(S(=O)(=O)N2CCN(c3ccccc3)CC2)cc1N1[C@@H]2CC[C@H]1CN(C(=O)c1ccc(F)cc1Cl)C2 [compound 012, (2-chloro-4-fluoro-phenyl)-[(1S,5R)-8-[2-methoxy-5-(4-phenylpiperazin-1-yl)sulfonyl-phenyl]-3,8-diazabicyclo[3.2.1]octan-3-yl]methanone]
- EC50: < 1000 nM

SMILES: CC(C)(C#N)NS(=O)(=O)c1cc(Cl)c(O)c(N2[C@@H]3CC[C@H]2CN(C(=O)c2ccc(F)cc2Cl)C3)c1 [compound 103]
- EC50: 1000 to 10000 nM

SMILES: CN(C1(C)COC1)S(=O)(=O)c1cc(Cl)c(O)c(N2[C@@H]3CC[C@H]2CN(C(=O)c2ccc(F)cc2Cl)C3)c1 [compound 106, 3-chloro-5-[(1S,5R)-3-(2-chloro-4-fluoro-benzoyl)-3,8-diazabicyclo[3.2.1]octan-8-yl]-4-hydroxy-N-methyl-N-(3-methyloxetan-3-yl)benzenesulfonamide]
- EC50: < 1000 nM

- EC50: 1000 to 10000 nM
SMILES: CCCN(C)S(=O)(=O)c1ccc(OC)c(N2CCN(C(=O)c3ccc(F)cc3Cl)CC2C)c1 (racemic) [compound 001, 4-methoxy-N-methyl-N-propyl-3-[rac-(2S)-4-(2-chloro-4-fluoro-benzoyl)-2-methyl-piperazin-1-yl]benzenesulfonamide]

- EC50: 1000 to 10000 nM
SMILES: CCCN(C)S(=O)(=O)c1ccc(OC)c(N2CCN(C(=O)c3ccc(F)cc3C(F)(F)F)CC2C(F)(F)F)c1 (racemic) [compound 016, 4-methoxy-N-methyl-N-propyl-3-[rac-(2S)-4-[4-fluoro-2-(trifluoromethyl)benzoyl]-2-(trifluoromethyl)piperazin-1-yl]benzenesulfonamide]

SMILES: CN(CC1CC1)S(=O)(=O)c1cc2c(c(N3[C@@H]4CC[C@H]3CN(C(=O)c3ccc(F)cc3Cl)C4)c1)OCC2 [compound 058, 7-[(1S,5R)-3-(2-chloro-4-fluoro-benzoyl)-3,8-diazabicyclo[3.2.1]octan-8-yl]-N-(cyclopropylmethyl)-N-methyl-2,3-dihydrobenzofuran-5-sulfonamide]
- EC50: 1000 to 10000 nM

SMILES: CC(C)NS(=O)(=O)c1cc(Cl)c(O)c(N2[C@@H]3CC[C@H]2CN(C(=O)c2ccc(F)cc2Cl)C3)c1 [compound 100]
- EC50: < 1000 nM
